Measured values taken from patent US10314838B2, “Compositions of buprenorphine and μ antagonists” (priority 2011, dated 2019).
Read-outs that look alike come from different tables or passages of the source.

Assays:
[1] = molecular target: T1, human μ opioid receptor (Homo sapiens, UniProt P35372); assay: biochemical
T1 construct: expressed in transfected cells; membranes used
Method: Other functional assays could also be used based on cAMP or other downstream end-points following receptor activation; however the GTPγS is the preferred approach. […] Since the AAnAI is based on Cmax it can be calculated for any route of administration for the combination.
These values were determined using the GTPγS functional assay.
The [^35S]GTPγS assay measures the functional properties of a compound by quantifying the level of G-protein activation following agonist binding in studies using stably transfected cells, and is considered to be a measure of the efficacy of a compound. Membranes from CHO (Chinese Hamster Ovary) cells that stably expressed the cloned human μ opioid receptor were used in the experiments. […] The assay buffer consisted of 50 mM Tris-HCl, pH 7.4, 3 mM MgCl2, 0.2 mM EGTA, 3 μM GDP, and 100 mM NaCl. The final concentration of [35S]GTPγS was 0.080 nM. Nonspecific binding was measured by inclusion of 10 μM GTPγS. Binding was initiated by the addition of the membranes. After an incubation of 60 min at 30° C., the samples were filtered through Schleicher & Schuell No. 32 glass fiber filters. The filters were washed three times with cold 50 mM Tris-HCl, pH 7.5, and were counted in 2 mL of Ecoscint scintillation fluid.

[2] = system: NAc-sh dopamine and 5-HIAA; assay: NAc-sh dopamine and 5-HIAA in WKY rats undergoing forced swim test; format: in vivo, rat; conditions: highest dose of Compound 1, buprenorphine 0.1 mg/kg, WKY rats in FST
Method: FIG. 6: The effect of Compound-1 on dopamine efflux in WKY rats undergoing forced swim test after treatment with Buprenorphine (0.1 mg/kg).
FIG. 7: The efflux of Compound-1 on 5-Hydroxyindoleacetic acid (5-HIAA) release in WKY rats undergoing the forced swim test after treatment with Buprenorphine (0.1 mg/kg).

[3] = Plasma Cmax in patients (LC/MS/MS); conditions: human, 8 mg
Method: Samples were analyzed using a 50 μL aliquot volume and a protein-precipitation extraction procedure followed by liquid chromatography/tandem mass spectrometry (LC/MS/MS).
Samples were analyzed using a 400 μL aliquot volume and a solid-phase extraction procedure followed by liquid chromatography/tandem mass spectrometry (LC/MS/MS).

[4] = Rat plasma Cmax of antagonists given with buprenorphine; conditions: male, sc
Method: Male rats weighing between 300-400 grams, the same weight range used in the microdialysis studies, were used for these PK experiments. […] Sample of blood were collected at 5, 15, 30, 60 and 120 minutes post dosing. […] The collection tubes were inverted 10-15 times and then held on ice prior to centrifugation.

[5] = system: dopamine efflux in the Nucleus Accumbens shell (NAc-sh); assay: In vivo microdialysis, buprenorphine-induced dopamine efflux; conditions: antagonist plus buprenorphine 0.1 mg/kg SC
Method: Experiments were conducted in rats to assess the ability of opioid antagonists to modulate buprenorphine-induced dopamine efflux in the Nucleus Accumbens shell (NAc-sh) region of the mesolimbic region of the brain. Male rats weighing 300-400 grams were used for all studies. To measure the efflux of dopamine in the NAc-sh an in vivo microdialysis method was utilized in free-moving rats. This method allows the sampling of extracellular cerebrospinal fluid (CSF) from specific brain regions of interest and measurement of neurotransmitter concentrations following the analysis of sampled dialysate with HPLC-EC.
Each rat underwent surgical implantation of microdialysis guide cannula (CMA 12, CMA Microdialysis) to facilitate the insertion of the microdialysis probe later on. Rats were anesthetized with a mixture of ketamine/xylazine (80/6 mg/kg IP) and placed in a stereotaxic apparatus. […] Guide cannula were capped with dummy probes until microdialysis probe insertion. On the day prior to experimentation (3-4 days post-surgery), animals were weighed to determine appropriate dose for test articles. A microdialysis probe (CMA 12, 2 mm membrane, CMA microdialysis) was then inserted through the guide cannula. […] Each sample was analyzed via HPLC-EC to determine neurotransmitter concentration of dopamine based upon a six-point standard curve.

[6] = 50 mg dose of naltrexone; cited from earlier work

T1 sequence (P35372 whole entry): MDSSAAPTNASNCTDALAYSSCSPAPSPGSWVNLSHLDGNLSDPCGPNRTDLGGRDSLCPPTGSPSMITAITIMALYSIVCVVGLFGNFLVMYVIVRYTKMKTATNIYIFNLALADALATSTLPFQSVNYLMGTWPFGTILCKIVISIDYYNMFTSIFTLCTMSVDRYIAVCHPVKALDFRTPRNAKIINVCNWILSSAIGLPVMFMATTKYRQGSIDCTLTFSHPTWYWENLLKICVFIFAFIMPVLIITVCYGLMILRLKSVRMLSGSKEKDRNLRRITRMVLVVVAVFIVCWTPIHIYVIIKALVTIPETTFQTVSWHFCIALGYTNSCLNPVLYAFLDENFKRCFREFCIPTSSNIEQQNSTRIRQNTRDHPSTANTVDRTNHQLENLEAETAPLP

| Compound | IC50 [1] [nM] | Imax [1] [%] | Buprenorphine effect on 5-HIAA [2] | Buprenorphine effect on NAc-sh dopamine [2] | Cmax [3] [ng/mL] | Cmax ([3]; other: sublingual) [nM] | Cmax ([4]; 0.3 mg/kg) [ng/mL] | Cmax ([4]; 1 mg/kg) [ng/mL] | Cmax ([4]; 0.03 mg/kg) [ng/mL] | Cmax ([4]; 0.1 mg/kg) [ng/mL] | NAc-sh dopamine efflux induced by buprenorphine [5] | Cmax [6] |
| --- | --- | --- | --- | --- | --- | --- | --- | --- | --- | --- | --- | --- |
| NC(=O)c1ccc2c(c1O)[C@]13CCN(CC4CC4)[C@H](C2)[C@]1(O)CCC(=O)C3 [Compound-1] | 0.9 | >95 | complete attenuation of buprenorphine effects | complete attenuation of buprenorphine effects | 25.8 | 69.6 | 11.8 | 75.5 | – | – | – | – |
| C=C1CC[C@@]2(O)[C@H]3Cc4ccc(C(N)=O)c(O)c4[C@@]2(CCN3CC2CC2)C1 [Compound-10] | 0.23 | – | – | – | – | – | 29.5 | – | 2.24 | 18.1 | – | – |
| C=C1CC[C@@]2(O)[C@H]3Cc4ccc(O)c5c4[C@@]2(CCN3CC2CC2)[C@H]1O5 [Nalmefene, nalmefene] | – | – | – | – | – | – | 25.6 | 162 | – | 14.1 | more potent | – |
| O=C1CC[C@@]2(O)[C@H]3Cc4ccc(O)c5c4[C@@]2(CCN3CC2CC2)[C@H]1O5 [Naltrexone, naltrexone] | – | – | – | – | – | – | 76.9 | 169 | – | 19.3 | – | approximately 10 ng/mL |
